Experimental data taken from ChEMBL document CHEMBL4613308, “Screen of Unfocused Libraries Identified Compounds with Direct or Synergistic Antibacterial Activity” (ACS Med Chem Lett, 2020).
Converted amounts (≈) assume the structure as drawn.

Legend:
Escherichia coli [1] = assay: Synergistic antibacterial activity against Escherichia coli CCUG in presence of 0.5 times MIC of colistin by microdilution broth method; assay type: functional
Acinetobacter baumannii [2] = assay: Synergistic antibacterial activity against Acinetobacter baumannii ATCC 17978 in presence of 0.5 times MIC of colistin by microdilution broth method; assay type: functional
Pseudomonas aeruginosa [3] = assay: Antibacterial activity against Pseudomonas aeruginosa ATCC 27853 assessed as bacterial growth inhibition by agar diffusion assay; assay type: functional
Acinetobacter baumannii [4] = assay: Potentiation of colistin-induced antibacterial activity against Acinetobacter baumannii ATCC 17978 assessed as fold reduction in colistin MIC by microdilution broth method relative to colistin MIC; assay type: functional
Escherichia coli [5] = assay: Potentiation of colistin-induced antibacterial activity against Escherichia coli CCUG assessed as fold reduction in colistin MIC in by microdilution broth method relative to colistin MIC; assay type: functional
Acinetobacter baumannii [6] = assay: Antibacterial activity against Acinetobacter baumannii ATCC 17978 assessed as bacterial growth inhibition by agar diffusion assay; assay type: functional
Escherichia coli [7] = assay: Antibacterial activity against Escherichia coli CCUG assessed as bacterial growth inhibition by agar diffusion assay; assay type: functional
Klebsiella pneumoniae [8] = assay: Synergistic antibacterial activity against Klebsiella pneumoniae ATCC 13833 in presence of 0.5 times MIC of colistin by microdilution broth method; assay type: functional
Klebsiella pneumoniae [9] = assay: Antibacterial activity against Klebsiella pneumoniae ATCC 13833 assessed as bacterial growth inhibition by agar diffusion assay; assay type: functional
Klebsiella pneumoniae [10] = assay: Potentiation of colistin-induced antibacterial activity against Klebsiella pneumoniae ATCC 13833 assessed as fold reduction in colistin MIC by microdilution broth method relative to colistin MIC; assay type: functional
Klebsiella pneumoniae [11] = assay: Synergistic antibacterial activity against colistin-resistant Klebsiella pneumoniae SI-004Bo clinical isolate in presence of 2 ug/ml colistin by microdilution broth method (reference value: 64 ug/ml); assay type: functional
Acinetobacter baumannii [12] = assay: Synergistic antibacterial activity against multidrug-resistant Acinetobacter baumannii N50 in presence of 2 ug/ml colistin by microdilution broth method; assay type: functional
Pseudomonas aeruginosa [13] = assay: Potentiation of colistin-induced antibacterial activity against Pseudomonas aeruginosa ATCC 27853 assessed as fold reduction in colistin MIC by microdilution broth method relative to colistin MIC; assay type: functional
HeLa = assay: Cytotoxicity against human HeLa cells assessed as reduction in cell viability assay by CellTox-Green assay; assay type: cell-based
Pseudomonas aeruginosa [14] = assay: Synergistic antibacterial activity against Pseudomonas aeruginosa ATCC 27853 in presence of 0.5 times MIC of colistin by microdilution broth method; assay type: functional
Klebsiella pneumoniae [15] = assay: Synergistic antibacterial activity against colistin-resistant Klebsiella pneumoniae SI-081R clinical isolate in presence of 2 ug/ml colistin by microdilution broth method (reference value: 256 ug/ml); assay type: functional
Pseudomonas aeruginosa [16] = assay: Synergistic antibacterial activity against Pseudomonas aeruginosa ATCC 27853 assessed as fractional inhibitory concentration index in presence of colistin by Checkerboard assay; assay type: functional
Acinetobacter baumannii [17] = assay: Synergistic antibacterial activity against Acinetobacter baumannii ATCC 17978 assessed as fractional inhibitory concentration index in presence of colistin by Checkerboard assay; assay type: functional
Bacillus spizizenii = assay: Antibacterial activity against Bacillus subtilis ATCC 6633 assessed as bacterial growth inhibition by agar diffusion assay; assay type: functional
Enterococcus faecalis = assay: Antibacterial activity against Enterococcus faecalis ATCC 29212 assessed as bacterial growth inhibition by agar diffusion assay; assay type: functional
Escherichia coli [18] = assay: Antibacterial activity against multidrug-resistant Escherichia coli Z25 clinical isolate assessed as bacterial growth inhibition by agar diffusion assay; assay type: functional
Staphylococcus aureus = assay: Antibacterial activity against Staphylococcus aureus ATCC 25923 assessed as bacterial growth inhibition by agar diffusion assay; assay type: functional
Pseudomonas aeruginosa [19] = assay: Antibacterial activity against multidrug-resistant Pseudomonas aeruginosa VR-143/97 clinical isolate assessed as bacterial growth inhibition by agar diffusion assay; assay type: functional
Enterobacter cloacae [20] = assay: Antibacterial activity against multidrug-resistant Enterobacter cloacae Z19 clinical isolate assessed as bacterial growth inhibition by agar diffusion assay; assay type: functional
Enterobacter cloacae [21] = assay: Antibacterial activity against multidrug-resistant Enterobacter cloacae VA 417/02 clinical isolate assessed as bacterial growth inhibition by agar diffusion assay; assay type: functional
Streptococcus pyogenes = assay: Antibacterial activity against Streptococcus pyogenes ATCC 12344 assessed as bacterial growth inhibition by agar diffusion assay; assay type: functional
Acinetobacter baumannii [22] = assay: Antibacterial activity against Acinetobacter baumannii AC-54/97 clinical isolate assessed as bacterial growth inhibition by agar diffusion assay; assay type: functional
Escherichia coli [23] = assay: Synergistic antibacterial activity against Escherichia coli CCUG assessed as fractional inhibitory concentration index in presence of colistin by Checkerboard assay; assay type: functional

Compound	MIC (Escherichia coli [1]) [µg/mL]	MIC (Acinetobacter baumannii [2]) [µg/mL]	MIC (Pseudomonas aeruginosa [3]) [µg/mL]	log2FC (Acinetobacter baumannii [4])	log2FC (Escherichia coli [5])	MIC (Acinetobacter baumannii [6]) [µg/mL]	MIC (Escherichia coli [7]) [µg/mL]	MIC (Klebsiella pneumoniae [8]) [µg/mL]	MIC (Klebsiella pneumoniae [9]) [µg/mL]	log2FC (Klebsiella pneumoniae [10])	MIC (Bacillus spizizenii) [µg/mL]	MIC (Enterococcus faecalis) [µg/mL]	MIC (Escherichia coli [18]) [µg/mL]	MIC (Staphylococcus aureus) [µg/mL]	MIC (Pseudomonas aeruginosa [19]) [µg/mL]	MIC (Enterobacter cloacae [20]) [µg/mL]	MIC (Enterobacter cloacae [21]) [µg/mL]	MIC (Streptococcus pyogenes) [µg/mL]	MIC (Acinetobacter baumannii [22]) [µg/mL]	also measured
CCCCCCc1ccc(O)cc1OCCCCCCCCCCC(=O)NCCO	4	16	> 512	5	7	> 512	> 512	8	> 512	6										
CCCCCCc1ccc(O)cc1OCCCCCC(=O)NCCO		8	> 512	6		> 512	> 512		> 512											
CCCCCc1cc(O)cc(OCCCCCCCCCCCC(=O)NCCO)c1	8	4	> 512	7	6	> 512	> 512	8	> 512	6										MIC (Klebsiella pneumoniae [11]): > 64 µg/mL; MIC (Acinetobacter baumannii [12]): 4 µg/mL; log2FC (Pseudomonas aeruginosa [13]): 7; IC50 (HeLa): 18 µg/mL (≈ 42.7 µM); MIC (Pseudomonas aeruginosa [14]): 4 µg/mL; MIC (Klebsiella pneumoniae [15]): > 64 µg/mL; fractional inhibitory concentration index (FICI) (Pseudomonas aeruginosa [16]): 0.41; fractional inhibitory concentration index (FICI) (Acinetobacter baumannii [17]): 0.31
CCCCCCc1ccc(OCCCCCCCC(=O)NCCO)cc1O	8	16	> 512	5	6	> 512	> 512	4	> 512	7										
CCOC(=O)c1c(O)nc2c(C)cccc2c1O	64	64	> 512	3	3	> 512	> 512	16	> 512	5										
CCCCCc1cc(O)cc(OCCCCCCCCCCC(=O)NC(CO)CO)c1	8	4	> 512	7	6	> 512	> 512	8	> 512	6										
CCOC(=O)c1cn(CC)c2cc(N)c(F)cc2c1=O			> 256			256 (≈ 920 µM)	32 (≈ 115 µM)		128 (≈ 460 µM)		32 (≈ 115 µM)	256 (≈ 920 µM)	> 256	256 (≈ 920 µM)	> 256	> 256	> 256	64 (≈ 230 µM)	> 256	
CC(C)(C)n1cc(C(=O)O)c(=O)c2cc(F)c(-c3ccc(F)cc3F)cc21			64 (≈ 171 µM)			8 (≈ 21.3 µM)	16 (≈ 42.6 µM)		4 (≈ 10.7 µM)		≤ 0.12	2 (≈ 5.33 µM)	> 256	2 (≈ 5.33 µM)	> 256	> 256	4 (≈ 10.7 µM)	1 (≈ 2.66 µM)	> 256	
O=C(O)c1cn(C2CC2)c2cc(Br)c(F)cc2c1=O			8 (≈ 24.5 µM)			0.5 (≈ 1.53 µM)	0.25 (≈ 0.767 µM)		≤ 0.12		≤ 0.12	4 (≈ 12.3 µM)	> 256	4 (≈ 12.3 µM)	256 (≈ 785 µM)	> 256	0.25 (≈ 0.767 µM)	4 (≈ 12.3 µM)	256 (≈ 785 µM)	
CC(C)c1ccc2c(c1)c(O)c(C(C)C)c(=O)n2CC(C)(C)C	32	32	> 512	4	4	> 512	> 512	64	> 512	3										
CCOC(=O)c1cn2c3c(cccc3c1=O)OCC2CC (configuration not stated)			> 256			256 (≈ 891 µM)	> 256		128 (≈ 446 µM)		128 (≈ 446 µM)	256 (≈ 891 µM)	> 256	> 256	> 256	> 256	> 256	> 256	> 256	
CC(C)(C)n1cc(C(=O)O)c(=O)c2cc(F)c(Sc3ccccc3)cc21			256 (≈ 689 µM)			32 (≈ 86.2 µM)	16 (≈ 43.1 µM)		8 (≈ 21.5 µM)		≤ 0.12	2 (≈ 5.38 µM)	> 256	2 (≈ 5.38 µM)	128 (≈ 345 µM)	256 (≈ 689 µM)	16 (≈ 43.1 µM)	1 (≈ 2.69 µM)	> 256	
COc1ccc(-c2cc3c(cc2F)c(=O)c(C(=O)O)cn3C(C)(C)C)cc1			> 256			16 (≈ 43.3 µM)	> 256		16 (≈ 43.3 µM)		≤ 0.12	0.5 (≈ 1.35 µM)	> 256	0.25 (≈ 0.677 µM)	> 256	> 256	128 (≈ 347 µM)	≤ 0.12	> 256	
CC(C)(C)n1cc(C(=O)O)c(=O)c2cc(F)c(-c3cccnc3)cc21			4 (≈ 11.8 µM)			0.5 (≈ 1.47 µM)	2 (≈ 5.88 µM)		0.25 (≈ 0.735 µM)		≤ 0.12	0.5 (≈ 1.47 µM)	256 (≈ 752 µM)	≤ 0.12	64 (≈ 188 µM)	256 (≈ 752 µM)	0.5 (≈ 1.47 µM)	≤ 0.12	64 (≈ 188 µM)	
COc1ccc(CNC(=O)c2c(O)c3cc(-c4cccnc4)ccc3n(CCCCO)c2=O)cc1	32	16	256 (≈ 541 µM)	5	4	16 (≈ 33.8 µM)	64 (≈ 135 µM)	64	32 (≈ 67.6 µM)	3	0.12 (≈ 0.253 µM)	16 (≈ 33.8 µM)	> 256	4 (≈ 8.45 µM)	> 256	> 256	64 (≈ 135 µM)	8 (≈ 16.9 µM)	> 256	fractional inhibitory concentration index (FICI) (Escherichia coli [23]): 0.56
CCCCCc1cc(OC)cc(OCCCCCCCC(=O)NCCO)c1	4	4	> 512	7	7	> 512	> 512	8	> 512	6										MIC (Klebsiella pneumoniae [11]): > 64 µg/mL; MIC (Acinetobacter baumannii [12]): 8 µg/mL; IC50 (HeLa): > 20 µg/mL; MIC (Klebsiella pneumoniae [15]): 18 µg/mL
Cc1c(C(=O)N(C)CCN(C)C)nn(-c2ccc(Cl)cc2)c1-n1cccc1	64	16	> 512	5	3	> 512	> 512	32	> 512	4										
O=C(NCc1ccc2c(c1)OCO2)c1cnn(-c2ccccc2)c1-n1cccc1	64	32	> 512	4	3	> 512	> 512	64	> 512	3										MIC (Klebsiella pneumoniae [11]): > 64 µg/mL; MIC (Acinetobacter baumannii [12]): 32 µg/mL; IC50 (HeLa): > 60 µg/mL; MIC (Klebsiella pneumoniae [15]): > 64 µg/mL; fractional inhibitory concentration index (FICI) (Acinetobacter baumannii [17]): 0.38
CC(C)(C)n1cc(C(=O)O)c(=O)c2cc(F)c(Br)cc21			32 (≈ 93.5 µM)			8 (≈ 23.4 µM)	8 (≈ 23.4 µM)		1 (≈ 2.92 µM)		≤ 0.12	2 (≈ 5.85 µM)	> 256	8 (≈ 23.4 µM)	> 256	> 256	2 (≈ 5.85 µM)	8 (≈ 23.4 µM)	> 256	
CCCCCCC(C)(C)c1cc(O)cc(OCCCCCCCC(=O)NCCO)c1	2	4	> 512	7	8	> 512	> 512	4	> 512	7										
